Experimental data from article PMC11219945, “Assessing genotoxic effects of chemotherapy agents by a robust in vitro assay based on mass spectrometric quantification of γ-H2AX in HepG2 cells” (Frontiers in Pharmacology, 2024).

Columns and labels:
[1] = test system: γ-H2AX in HepG2 cells; test: γ-H2AX MS assay, dose-effect relationship in HepG2 cells; details: for γ-H2AX MEC/MS (minimum effective concentration): 24 h exposure; for maximum γ-H2AX value within the selected concentration range / Variation of γ-H2AX: 24 h
Protocol: Human hepatoblastoma cells (HepG2) were cultivated in DMEM medium under standard conditions (37°C in a 5% CO2 atmosphere). The culturing medium was added with 10% FBS, 100 U/mL penicillin and 100 μg/mL streptomycin.
In accordance to our previous study, cells were exposed to the chemotherapeutic agent by adding a proper volume of chemotherapeutic agent stock solution to the fresh medium without serum. Controls were treated with DMSO (0.1%) in medium. Independent biological experiments with three technical replicates were conducted.
The cells were then treated with different chemotherapy agents in serum-free medium. For a dose-effect relationship experiment, cells were exposed to each agent at either of three concentrations with a 10-fold increase for 24 h. For the time-effect relationship experiment of nine tested chemotherapy agents, cells were exposed to selected chemotherapy agents at 0.5, 1, 2, 4, 8, 12, and 24 h, with the concentration of 100 μM. Independent biological experiments with three technical replicates were performed.
(§1) The quantification of γ-H2AX was carried out according to the previous report ([Qu et al., 2021]). In short, the cell clumps were collected after a certain period of cell culture and histones were obtained by acid extraction. After nuclear isolation, histone extraction, trypsin digestion in the solution, and desalting, the peptide sample from the carboxy terminus of H2AX was analyzed. LC–MS/MS analysis was conducted using a QTRAP 5500 (AB Sciex, Framingham, United States) with an ACQUITY UPLC system (Waters Co., Manchester, United Kingdom). Chromatographic separation was carried out with an ACQUITY UPLC BEH C18 column (100 mm × 2.1 mm, 1.7 μm). The column temperature was maintained at 40°C. A 10 μL sample aliquot was injected for analysis. Mobile phases A and B were 0.1% FA in distilled H2O and acetonitrile, respectively. […] The eluent composition was maintained for 2 min, after which the system returned to 1% B and was re-equilibrated for 2 min. The eluates in the first 1 min were switched to waste to prevent contaminating the ion source. The electrospray ionization source was operated in positive mode using nitrogen as the nebulizing gas. All experiments were performed independently in at least triplicate.
To this end, we firstly examined the cytotoxicity of 34 chemotherapy agents, all of which were already well classified in terms of diverse characteristics. These tested chemotherapy agents were serially diluted for exposure to check the effects on cell viability.

[2] = combination of in vitro mouse lymphoma, chromosomal aberration, and micronucleus tests; cited from earlier work
[3] = test system: γ-H2AX in HepG2 cells; test: γ-H2AX time-effect relationship / DNA repair kinetics (k, t50) in HepG2 cells; format: cell-based, Human; parameters: k (speed of γ-H2AX descending): unit not given here; details: 100 μM, 0.5–8 h time-dependent kinetics
Protocol: The cells were then treated with different chemotherapy agents in serum-free medium. […] Independent biological experiments with three technical replicates were performed.
as §1, with “In” for “The quantification of γ-H2AX was carried out according to the previous report ([Qu et al., 2021]). In”
Here, we estimated k and t50 after exposure to nine representative chemotherapy agents based on the 0.5–8 h γ-H2AX time-dependent kinetics (Figure 5) and then obtained these parameters to describe each agent DSB repair capacity using the functions optim and optimize in R language.

Molecule | maximum γ-H2AX value within the selected concentration range ([1]; human) | γ-H2AX MEC/MS (minimum effective concentration) ([1]; HepG2 cells) | In vitro assays (genotoxicity) [2] | k (speed of γ-H2AX descending) [3] | t50 (time required for γ-H2AX to drop to half of the maximum value) [3] | also measured
O=P1(NCCCl)OCCCN1CCCl (stereo not drawn) [Ifosfamide] |  | ↑(1000) µM |  |  |  | 
N#Cc1ccc(C(c2ccc(C#N)cc2)n2cncn2)cc1 [Letrozole] | 3.1 |  | − |  |  | 
O=C1c2c(O)ccc(O)c2C(=O)c2c(NCCNCCO)ccc(NCCNCCO)c21 [Mitoxantrone] |  |  | + | 0.111 | 7.999 h | 
Cc1ncc(CNC(=O)N(CCCl)N=O)c(N)n1 [Nimustine] |  | ↑(0.01) µM |  | 0.160 | 2.465 h | γ-H2AX MEC/MS (minimum effective concentration) ([1]; HepG2 cells, listed as nimustine): 0.01 µM
O=C1[O][Pt]2([NH][C@@H]3CCCC[C@H]3[NH]2)[O]C1=O [Oxaliplatin] |  | ↑(100) µM | + |  |  | maximum γ-H2AX value within the selected concentration range ([1]; HepG2 cells): 7.51; γ-H2AX MEC/MS (minimum effective concentration) ([1]; HepG2 cells, listed as oxaliplatin): 100 µM
CC(=O)O[C@H]1C(=O)[C@@]2(C)[C@H]([C@H](OC(=O)c3ccccc3)[C@]3(O)C[C@H](OC(=O)[C@H](O)[C@@H](NC(=O)c4ccccc4)c4ccccc4)C(C)=C1C3(C)C)[C@]1(OC(C)=O)CO[C@@H]1C[C@@H]2O [Paclitaxel] |  |  |  |  |  | Variation of γ-H2AX ([1]; human): no variations of γ-H2AX
COc1cccc2c1C(=O)c1c(O)c3c(c(O)c1C2=O)C[C@@](O)(C(=O)CO)C[C@@H]3O[C@H]1C[C@H](N)[C@H](O[C@@H]2CCCCO2)[C@H](C)O1 [Pirarubicin] |  | ↑(0.01) µM | + |  |  | maximum γ-H2AX value within the selected concentration range ([1]; HepG2 cells): 22; γ-H2AX MEC/MS (minimum effective concentration) ([1]; HepG2 cells, listed as pirarubicin): 0.01 µM
Nc1nc2nc[nH]c2c(=S)[nH]1 [Thioguanine] | 6.6 |  | + |  |  | 
CCC1=C[C@@H]2CN(C1)Cc1c([nH]c3ccccc13)[C@@](C(=O)OC)(c1cc3c(cc1OC)N(C)[C@H]1[C@@](O)(C(=O)OC)[C@H](OC(C)=O)[C@]4(CC)C=CCN5CC[C@]31[C@@H]54)C2 [Vinorelbine] | 3.3 |  |  |  |  | Variation of γ-H2AX ([1]; human): no variations of γ-H2AX
Deoxyfluridine |  | ↑(10) µM | + | 4.157 | 1.201 h | value of γ-H2AX ([1]; HepG2 cells, 100 μM of exposure concentration): 8.4; maximum γ-H2AX value within the selected concentration range ([1]; HepG2 cells): 8.4; γ-H2AX MEC/MS (minimum effective concentration) ([1]; HepG2 cells, listed as deoxyfluridine): 10 µM

Now from value to molecule, other results behind:

maximum γ-H2AX value within the selected concentration range ([1]; human) | Molecule | γ-H2AX MEC/MS (minimum effective concentration) ([1]; HepG2 cells) | In vitro assays (genotoxicity) [2] | k (speed of γ-H2AX descending) [3] | t50 (time required for γ-H2AX to drop to half of the maximum value) [3] | also measured
3.1 | CC/C(=C(\c1ccccc1)c1ccc(OCCN(C)C)cc1)c1ccccc1 [Tamoxifen] |  | − |  |  | 
7.2 | O=c1[nH]c(=O)n(C2CCCO2)cc1F (stereo not drawn) [Tegafur] |  | + | 3.015 | 1.442 h | value of γ-H2AX ([1]; human, 100 μM): 7.2
13.2 | COc1cc([C@@H]2c3cc4c(cc3[C@@H](O[C@@H]3O[C@@H]5CO[C@@H](c6cccs6)O[C@H]5[C@H](O)[C@H]3O)[C@H]3COC(=O)[C@H]23)OCO4)cc(OC)c1O [Teniposide] |  | + |  |  | 
18.4 | CC[C@@]1(O)C(=O)OCc2c1cc1n(c2=O)Cc2cc3c(CN(C)C)c(O)ccc3nc2-1 [Topotecan] |  | + | 0.132 | 3.545 h | 
3 | CC[C@]1(O)C[C@H]2CN(CCc3c([nH]c4ccccc34)[C@@](C(=O)OC)(c3cc4c(cc3OC)N(C=O)[C@H]3[C@@](O)(C(=O)OC)[C@H](OC(C)=O)[C@]5(CC)C=CCN6CC[C@]43[C@@H]65)C2)C1 [Vincristine] |  |  |  |  | Variation of γ-H2AX ([1]; human): no variations of γ-H2AX
